{
  "source": "patent US10548906B2",
  "about": "“Methods of promoting hepatic regeneration” (Intercept Pharmaceuticals, Inc., priority 2015, dated 2020)",
  "key": {"[1]": {"system": "New Zealand White rabbits", "assay": "PVE-induced liver growth in rabbits, CT volumetry and body weight (Example 5)", "quoted_text": "PVE of the cranial liver lobes was performed using polyvinyl alcohol particles and coils at day 0. Caudal liver volume (CLV) was analyzed by CT volumetry at days −7, −1, +3 and +7. Liver function (i.e. mebrofenin uptake) was quantified in subgroups of animals using hepatobiliary scintigraphy. Additional parameters analyzed were plasma transaminase levels, histological scoring of H&E- and Ki67-stained liver sections, and FXR target gene expression.\nSix groups of six rabbits were planned for PVE. […] Treatment was started 7 days before PVE, and continued until sacrifice at 3 or 7 days after PVE.\nUnder digital subtraction portography a Renegade 3F microcatheter (Boston Scientific, Natick, Mass.) with a Transend-ex 0.36 mm×182-cm guide wire (Boston Scientific) was positioned in the main portal branch to the cranial liver lobes. Polyvinyl alcohol particles (90-180 μm and 300-500 μm in diameter, Cook, Bloomington, Ind.) and 2 fibered platinum coils (4.0 and 6.0 mm; Boston Scientific) were infused through the catheter to occlude the portal branches to the cranial lobes. PVE was confirmed by portography, and the mesenteric vein was closed using a ligature. The abdomen was closed in two layers. Baytril was administered daily for 3 days following PVE.\nMultiphase CT-scans (Brilliance 64, Philips, Eindhoven, The Netherlands) were performed at day −7, −1, +3, and +7. Animals (n=18 per treatment group) were anesthetized and a 22G catheter was placed in the lateral ear vein. A baseline scan was made and 3 mL of contrast solution (Visipaque, GE Healthcara, Waukesha, Wis.) was injected. Arterial, portal and venous phase scans were made after 15, 30, 45 seconds respectively. Volumetric analysis was performed on 3D reconstruction of 5-mm axial slices using manual delineation. Caudal liver volume (CLV) and total liver volume (TLV) were determined and increase in CLV was determined using the following formula:\nThe same formula was used to calculate the decrease in cranial liver volume (CrLV; CrLV=TLV−CLV). Increase in CLV and decrease in CrLV was calculated using day −1 values as baseline. […] Regeneration rate was calculated using the formula:"}, "Adult female rabbits": {"system": "Adult female rabbits", "assay": "PVE in rabbits: CLV and bile salts (Example 5a)", "assay_type": "in vivo, rabbit", "settings": "day 3 after PVE", "experimental": "(§1) Adult female rabbits received vehicle or the FXR agonist obeticholic acid (OCA; 10 mg/kg, daily oral gavage) for 7 days prior to, and after embolization (day 0) of the cranial liver lobes. Effectiveness of PVE was confirmed by portography, and caudal liver volume (CLV) was analyzed by CT-volumetric analysis at days −7, −1, +3 and +7. Rabbits were sacrificed at day +3 and +7 (n=5-6 per group)."}, "FXR [2]": {"system": "FXR", "assay": "Bile salt homeostasis/proliferation related transcript levels in liver after PVE (Example 5a)", "assay_type": "in vivo, rabbit", "experimental": "as §1"}, "Fxr [3]": {"system": "Fxr", "assay": "qRT-PCR of proliferation-, Fxr- and bile acid homeostasis-related genes in liver and ileum of rBDL rats (Example 6)", "assay_type": "in vivo, rat", "experimental": "Transcriptional analysis was performed [Olthof 2015]. Liver samples were homogenized with a MagNA Lyser and total RNA was extracted with the High Pure RNA Tissue Kit (both from Roche Applied Sciences, Penzberg, Germany). One μg of RNA was reverse transcribed to cDNA using the SensiFAST cDNA Synthesis Kit (Bioline, London, UK) according to manufacturer's instructions. Quantitative reverse transcriptase polymerase chain reaction was performed on a LightCycler 480 (Roche, Basel, Switzerland) using SensiFAST SYBR No-ROX mix (Bioline). Fluorescence data was processed and analyzed and normalized to hypoxanthine-guanine phosphoribosyltransferase (Hprt) for ileum samples, and the geometric mean of ubiquitin C (Ubc) and beta-2-microglobulin (B2m) for liver samples. […] Primers were designed using NCBI Primer Blast (http://www.ncbi.nlm.nih.gov/tools/primer-blast/) to span an intron or exon-exon junction and prevent amplification of residual genomic DNA (Table 2). Melting curve analysis and agarose gel electrophoresis were used to validate primer specificity."}, "[4]": {"system": "New Zealand White rabbits", "assay": "Liver injury after PVE: clinical chemistry and H&E histology (Example 5)", "assay_type": "in vivo, rabbit", "experimental": "Liver tissue (left lateral and caudal lobes) was fixed in buffered formalin for 48 h, and subsequently dehydrated and embedded in paraffin. Four-micron sections of liver tissue were cut and stained with standard hematoxylin and eosin stain. Sections were scored for lobular and portal inflammation according to Table 1. Additionally, liver sections were stained with Ki67 antibodies to quantify hepatocyte proliferation, and hematoxylin counterstain as described in detail previously (van der Loos C M, et al. J Histochern Cytochern 2013; 61(1):11-8; Marsman H A, et al. Br J Surg 2013; 100(5):674-83). Ki67-positive hepatocytes were counted in a total of five high power fields per animal, by a hepatopathologist (JV) blinded to the group allocation. Liver histology was assessed at day 3 and 7 for n=6 per treatment group.\nSerum alanine transaminase (ALT), amino aspartate aminotransferase (AST), gamma-glutamyl transferase (γGT), and alkaline phosphatase (ALP) were determined by the Department of Clinical Chemistry (Academic Medical Center, Amsterdam, The Netherlands) using a Cobas 8000 modular analyzer (Roche, Basel, Switzerland) on samples obtained from 12 animals per treatment group."}, "FXR [5]": {"system": "FXR", "assay": "FXR target gene expression in terminal ileum and liver by RT-qPCR (Example 5)", "assay_type": "in vivo, rabbit", "experimental": "Total RNA was isolated from terminal ileum and (non)embolized liver lobes using Tri Reagent (Ambion). Following treatment with DNAseI (Promega, Leiden, the Netherlands), 750 ng total RNA was converted to cDNA using the iSCRIPT cDNA synthesis kit (BioRad, Veenendaal, the Netherlands). Quantitative RT-PCR (real-time polymerase chain reaction) was performed on an IQ5 Cycler using SYBR Green chemistry (SYBR Green MasterMix, BioRad) and cDNA equivalent to 7.5 ng total RNA as template. Expression levels were calculated using LinReg software (Ramakers C, et al. Neurosci Lett 2003; 339(1):62-6) and normalized to the geometric mean of Rplp0, Hprt and Gapdh. Predicted product size was checked by agarose gel electrophoresis. PCR analysis was performed using tissue obtained at day 3 and 7 for n=6 per treatment group."}, "[6]": {"settings": "prior to PHx, vs untreated rBDL"}},
  "data": [
    {"smiles": "CC[C@H]1[C@@H](O)[C@@H]2[C@H](CC[C@]3(C)[C@@H]([C@H](C)CCC(=O)O)CC[C@@H]23)[C@@]2(C)CC[C@@H](O)C[C@@H]12", "note": "[Compound 1, 3α,7α-dihydroxy-6α-ethyl-5β-cholanic acid]", "values": [
      {"measurement": "increase of CLV relative to vehicle controls", "setting": "[1]; 3 days after PVE", "value": 2.2, "unit": "fold"},
      {"measurement": "increase in caudal liver volume (CLV)", "setting": "[1]; 3 days after PVE, relative to day −1, N=17", "value": "56.1±20.3", "unit": "%"},
      {"measurement": "increase of CLV relative to vehicle controls", "setting": "[1]; day 7 after PVE", "value": 1.5, "unit": "fold"},
      {"measurement": "increase in caudal liver volume (CLV)", "setting": "[1]; day 7 after PVE, relative to day −1, N=11", "value": "102.0±38.2", "unit": "%"},
      {"measurement": "total liver volume (TLV) corrected for body weight", "setting": "[1]; pre-treatment period day −7 until day −1, 10 mg/kg daily oral", "value": "did not induce spontaneous liver growth"},
      {"measurement": "body weight decrease after PVE", "setting": "[1]; vs vehicle", "value": "to a similar extent"},
      {"measurement": "increase in CLV", "setting": "Adult female rabbits", "value": "59.3±19.2", "unit": "%"},
      {"measurement": "expression of Cdc25b vs controls", "setting": "FXR [2]; atrophic liver segments", "value": "+1.1 fold"},
      {"measurement": "expression of Cdc25b vs controls", "setting": "FXR [2]; hypertrophic liver segments", "value": "+1.6 fold"},
      {"measurement": "expression of Cyp7a1 vs controls", "setting": "FXR [2]; hypertrophied segments, day +3", "value": "−7.1", "unit": "fold"},
      {"measurement": "expression of Slc51b vs controls", "setting": "FXR [2]; hypertrophied segments, day +3", "value": "+6.5 fold"},
      {"measurement": "hepatic Bsep expression, upregulation", "setting": "Fxr [3]; baseline", "value": "~8", "unit": "fold"},
      {"measurement": "hepatic Mrp4 expression", "setting": "Fxr [3]; baseline", "value": "upregulated"},
      {"measurement": "hepatic Ntcp expression", "setting": "Fxr [3]; baseline", "value": "mildly upregulated"},
      {"measurement": "hepatic Ostβ expression", "setting": "Fxr [3]; baseline", "value": "upregulated"},
      {"measurement": "hepatocyte Cyp7a1 mRNA level", "setting": "Fxr [3]; baseline", "value": "did not alter"},
      {"measurement": "hepatocyte Shp mRNA level", "setting": "Fxr [3]; baseline", "value": "did not alter"},
      {"measurement": "hepatic Mrp3 expression", "setting": "Fxr [3]; baseline, vs untreated rBDL", "value": "more robust induction"},
      {"measurement": "liver Fxr mRNA", "setting": "Fxr [3]; day 1 post-PHx", "value": "slight decrease"},
      {"measurement": "hepatic Foxm1 expression", "setting": "Fxr [3]; during liver regeneration after PHx", "value": "did not change"},
      {"measurement": "hepatic Shp transcript levels relative to untreated rBDL and control rats", "setting": "Fxr [3]; first two days after PHx", "value": "high transcript levels"},
      {"measurement": "hepatic Fgfr4 transcript level", "setting": "Fxr [3]; prior to / on the day of PHx, listed as OCA", "value": "markedly downregulated"},
      {"measurement": "hepatic Stat3 expression", "setting": "Fxr [3]; prior to PHx", "value": "considerably upregulated"},
      {"measurement": "ileal Fxr expression", "setting": "Fxr [3]; prior to PHx", "value": "minor downregulation"},
      {"measurement": "ileal Shp expression", "setting": "Fxr [3]; prior to PHx", "value": "marked upregulation"},
      {"measurement": "ileal Fgf15 transcription, upregulation", "setting": "Fxr [3]; prior to PHx, rBDL rats", "value": "~20", "unit": "fold"},
      {"measurement": "hepatic expression of Foxm1", "setting": "Fxr [3]; [6]", "value": "comparable"},
      {"measurement": "hepatic expression of Fxr", "setting": "Fxr [3]; [6]", "value": "comparable"},
      {"measurement": "hepatic expression of Ccnd1 (CyclinD1)", "setting": "Fxr [3]; prior to PHx, vs untreated rBDL or non-cholestatic animals", "value": "more pronounced"},
      {"measurement": "hepatic Fgfr4 expression", "setting": "Fxr [3]; regrowth phase after PHx", "value": "remained low"},
      {"measurement": "plasma ALP vs vehicle", "setting": "[4]; after PVE", "value": "slightly higher"},
      {"measurement": "plasma γGT vs vehicle", "setting": "[4]; after PVE", "value": "slightly higher"},
      {"measurement": "hepatocellular injury or cholestasis", "setting": "[4]; conclusion from ALT, AST, γGT, ALP", "value": "did not cause hepatocellular injury or cholestasis"},
      {"measurement": "histological scoring of H&E sections of the caudal lobe", "setting": "[4]; day 3 and 7, vs vehicle, listed as OCA", "value": "no differences between groups"},
      {"measurement": "plasma transaminase levels vs vehicle", "setting": "[4]; summary", "value": "similar"},
      {"measurement": "hepatic βKlotho transcript level", "setting": "FXR [5]; after three days", "value": "minor downregulation"},
      {"measurement": "hepatic Shp expression", "setting": "FXR [5]; caudal liver", "value": "without transcriptional induction"},
      {"measurement": "hepatic expression of Fgfr4", "setting": "FXR [5]; caudal liver", "value": "not affected"},
      {"measurement": "hepatic expression of Cyp7a1", "setting": "FXR [5]; caudal liver, day +3", "value": "strongly suppressed"},
      {"measurement": "Ostβ expression in the liver", "setting": "FXR [5]; day +3", "value": "elevated"},
      {"measurement": "ileal Shp expression", "setting": "FXR [5]; day +3", "value": "induction"},
      {"measurement": "hepatic Fxr expression", "setting": "FXR [5]; day +7", "value": "reduced"},
      {"measurement": "FXR activation (aggregated gene expression analysis)", "setting": "FXR [5]; ileum and liver, listed as OCA", "value": "activation of both ileal and hepatic FXR"},
      {"measurement": "ileal expression of Fxr", "setting": "FXR [5]; terminal ileum", "value": "no effect"},
      {"measurement": "ileal expression of Ostβ", "setting": "FXR [5]; terminal ileum", "value": "not affected"}
    ]}
  ]
}
